#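 The concentration for 50% growth inhibition is given as GI50. TGI: concentration producing complete growth inhibition.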
# How the values were obtained:
# Assay in all cases: NCI anticancer screen, dose series, 384-well format
# [1] = tested on: SNB-19 CNS
# [2] = tested on: A549 NSCLC
# [3] = tested on: M14 melanoma
# [4] = tested on: HS 578T breast
# [5] = tested on: OVCAR-8 ovarian
# [6] = tested on: OVCAR-3 ovarian
# [7] = tested on: T-47D breast
# [8] = tested on: PC-3 prostate
# [9] = tested on: SF-268 CNS
# [10] = tested on: UACC-62 melanoma
# [11] = tested on: NCI-H226 lung
# [12] = tested on: ACHN renal
# [13] = tested on: SW-620 colon
# [14] = tested on: MCF7 breast
# [15] = tested on: MDA-MB-231 breast
# [16] = tested on: U251 glioblastoma
# [17] = tested on: MDA-MB-468 breast
# [18] = tested on: UACC-257 melanoma
# [19] = tested on: K-562 leukemia
# [20] = tested on: DU-145 prostate
# [21] = tested on: NCI-H322M lung
# [22] = tested on: EKVX NSCLC
# [23] = tested on: 786-0 renal
# [24] = tested on: MALME-3M melanoma
# [25] = tested on: NCI/ADR-RES ovarian
# [26] = tested on: IGROV1 ovarian
# [27] = tested on: CAKI-1 renal
# [28] = tested on: NCI-H460 NSCLC
# [29] = tested on: OVCAR-4 ovarian
# [30] = tested on: SK-OV-3 ovarian
# [31] = tested on: LOX IMVI melanoma
# [32] = tested on: HOP-92 NSCLC
# [33] = tested on: HOP-62 NSCLC
# [34] = tested on: SR leukemia
# [35] = tested on: RXF 393 renal
# [36] = tested on: NCI-H23 lung
# [37] = tested on: HL-60(TB) leukemia
# [38] = tested on: SN12C renal
# [39] = tested on: COLO 205 colon
# [40] = tested on: SNB-75 CNS
# [41] = tested on: SF-539 CNS
# [42] = tested on: RPMI-8226 leukemia
# [43] = tested on: HCT-15 colon
# [44] = tested on: SF-295 CNS
# [45] = tested on: HCC-2998 colon
# [46] = tested on: OVCAR-5 ovarian
# [47] = tested on: MDA-MB-435 melanoma
# [48] = tested on: HT29 colon
# [49] = tested on: SK-MEL-5 melanoma
# [50] = tested on: CCRF-CEM leukemia
# [51] = tested on: A498 renal
# [52] = tested on: NCI-H522 lung
# [53] = tested on: TK-10 renal
# [54] = tested on: MOLT-4 leukemia
# [55] = tested on: UO-31 renal
# [56] = tested on: SK-MEL-28 melanoma
# [57] = tested on: BT-549 breast
# [58] = tested on: KM12 colon
structure (smiles),measurement,setting,value
C=CC(=O)Nc1cccc(Oc2nc(Nc3ccc(N4CCN(C)CC4)cc3OC)ncc2Cl)c1,GI50,[1],2600 nM
same,TGI,[1],8340 nM
same,GI50,[2],1230 nM
same,TGI,[2],2480 nM
same,GI50,[3],1770 nM
same,TGI,[3],3160 nM
same,GI50,[4],1370 nM
same,TGI,[4],2670 nM
same,GI50,[5],1440 nM
same,TGI,[5],2760 nM
same,GI50,[6],1250 nM
same,TGI,[6],2520 nM
same,GI50,[7],1110 nM
same,TGI,[7],2320 nM
same,GI50,[8],1700 nM
same,TGI,[8],3140 nM
same,GI50,[9],1460 nM
same,TGI,[9],2790 nM
same,GI50,[10],1560 nM
same,TGI,[10],2900 nM
same,GI50,[11],1130 nM
same,TGI,[11],2520 nM
same,GI50,[12],440 nM
same,TGI,[12],1710 nM
same,GI50,[13],1720 nM
same,TGI,[13],3110 nM
same,GI50,[14],1140 nM
same,TGI,[14],2360 nM
same,GI50,[15],1560 nM
same,TGI,[15],2950 nM
same,GI50,[16],1690 nM
same,TGI,[16],3090 nM
same,GI50,[17],16.7 nM
same,TGI,[17],90.9 nM
same,GI50,[18],1210 nM
same,TGI,[18],2460 nM
same,GI50,[19],1630 nM
same,TGI,[19],3000 nM
same,GI50,[20],1320 nM
same,TGI,[20],3080 nM
same,GI50,[21],354 nM
same,TGI,[21],1670 nM
same,GI50,[22],374 nM
same,TGI,[22],1650 nM
same,GI50,[23],1180 nM
same,TGI,[23],2420 nM
same,GI50,[24],1530 nM
same,TGI,[24],2860 nM
same,GI50,[25],1510 nM
same,TGI,[25],2850 nM
same,GI50,[26],754 nM
same,TGI,[26],2040 nM
same,GI50,[27],765 nM
same,TGI,[27],2050 nM
same,GI50,[28],1640 nM
same,TGI,[28],3020 nM
same,GI50,[29],1540 nM
same,TGI,[29],4150 nM
same,GI50,[30],1040 nM
same,TGI,[30],2230 nM
same,GI50,[31],1660 nM
same,TGI,[31],3030 nM
same,GI50,[32],1100 nM
same,TGI,[32],2340 nM
same,GI50,[33],1800 nM
same,TGI,[33],3510 nM
same,GI50,[34],1560 nM
same,TGI,[34],2890 nM
same,GI50,[35],1290 nM
same,TGI,[35],2570 nM
same,GI50,[36],1830 nM
same,TGI,[36],3860 nM
same,GI50,[37],1070 nM
same,TGI,[37],2260 nM
same,GI50,[38],1090 nM
same,TGI,[38],2610 nM
same,GI50,[39],1720 nM
same,TGI,[39],3100 nM
same,GI50,[40],1440 nM
same,TGI,[40],2890 nM
same,GI50,[41],1540 nM
same,TGI,[41],2880 nM
same,GI50,[42],1160 nM
same,TGI,[42],2380 nM
same,GI50,[43],1340 nM
same,TGI,[43],2640 nM
same,GI50,[44],1870 nM
same,TGI,[44],3450 nM
same,GI50,[45],1570 nM
same,TGI,[45],2930 nM
same,GI50,[46],1550 nM
same,TGI,[46],3390 nM
same,GI50,[47],1710 nM
same,TGI,[47],3100 nM
same,GI50,[48],1650 nM
same,TGI,[48],3020 nM
same,GI50,[49],1570 nM
same,TGI,[49],2920 nM
same,GI50,[50],1420 nM
same,TGI,[50],2720 nM
same,GI50,[51],517 nM
same,TGI,[51],1890 nM
same,GI50,[52],257 nM
same,TGI,[52],1250 nM
same,GI50,[53],788 nM
same,TGI,[53],2060 nM
same,GI50,[54],1500 nM
same,TGI,[54],2820 nM
same,GI50,[55],1350 nM
same,TGI,[55],2660 nM
same,GI50,[56],1670 nM
same,TGI,[56],3030 nM
same,GI50,[57],1300 nM
same,TGI,[57],2590 nM
same,GI50,[58],1700 nM
same,TGI,[58],3090 nM

# Reference: PubChem BioAssay (NCI)
